According to patent US8524465B2, “Agonists of bitter taste receptors and uses thereof” (Deutsches Institut fuer Ernaehrungsforschung …, priority 2007, dated 2013):

What was measured:
TAS2R4 = biological target: T1, TAS2R4 (Homo sapiens, UniProt Q9NYW5); experiment: FLIPR calcium imaging, HEK-293T Gα16gust44 cells expressing TAS2R4; type: cell-based
T1 construct: expressed in transfected cells; host or cells: HEK-293T cells stably expressing the chimeric G-protein subunit Gα16gust44
T1 sequence (Q9NYW5 1-299): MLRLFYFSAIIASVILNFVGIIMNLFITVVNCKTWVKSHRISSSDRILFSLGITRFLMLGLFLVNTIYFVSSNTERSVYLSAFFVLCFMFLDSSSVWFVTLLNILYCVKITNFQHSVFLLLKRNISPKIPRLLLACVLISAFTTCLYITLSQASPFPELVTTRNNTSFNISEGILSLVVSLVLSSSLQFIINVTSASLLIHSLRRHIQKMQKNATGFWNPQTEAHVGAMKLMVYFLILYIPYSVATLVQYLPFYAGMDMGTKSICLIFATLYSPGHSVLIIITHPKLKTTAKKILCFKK
Method: (§1) Tastants (Sigma-Aldrich, Taufkirchen, Germany) were dissolved and administered in the following (in mM): 130 NaCl, 5 KCl, 10 HEPES, 2 CaCl2, and 10 mM glucose, pH7.4. Data were collected from 1-2 independent experiments performed at least in triplicate and processed with SigmaPlot (SPSS, Chicago, Ill.). For dose-response curve calculation, the peak fluorescence responses after compound addition were corrected for and normalized to background fluorescence (ΔF/F=(F−F0)/F0), and baseline noise was subtracted.
(§2) All 25 human bitter taste receptors were challenged with 100 μM artemorin (FIG. 1) in a FLIPR calcium imaging experiment.

mock-transfected cells = conditions: 1 mM PROP
Method: as §1, §2

TAS2R10 = biological target: T2, TAS2R10 (Homo sapiens, UniProt Q9NYW0, T156M); experiment: FLIPR calcium imaging, HEK-293T Gα16gust44 cells expressing TAS2R10; type: cell-based
T2 construct: expressed in transfected cells; host or cells: HEK-293T cells stably expressing the chimeric G-protein subunit Gα16gust44
T2 sequence (Q9NYW0 1-307 T156M): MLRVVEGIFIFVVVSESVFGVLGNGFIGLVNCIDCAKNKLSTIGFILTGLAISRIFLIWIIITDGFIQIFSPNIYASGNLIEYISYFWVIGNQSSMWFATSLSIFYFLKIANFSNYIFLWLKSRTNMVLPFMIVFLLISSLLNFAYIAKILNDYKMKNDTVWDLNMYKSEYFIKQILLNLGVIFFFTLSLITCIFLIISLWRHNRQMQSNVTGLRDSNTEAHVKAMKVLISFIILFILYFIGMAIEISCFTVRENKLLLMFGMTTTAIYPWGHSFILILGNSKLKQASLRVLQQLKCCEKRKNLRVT
Method: as §1, §2

TAS2R14 = biological target: T3, TAS2R14 (Homo sapiens, UniProt Q9NYV8); experiment: FLIPR calcium imaging, HEK-293T Gα16gust44 cells expressing TAS2R14; type: cell-based; conditions: for molar range at which TAS2R14 responded to the bitter substance: calcium response, transfected HEK-293T Gα16gust44 cells, FLIPR
T3 construct: expressed in transfected cells; host or cells: HEK-293T cells stably expressing the chimeric G-protein subunit Gα16gust44
T3 sequence (Q9NYV8 1-317): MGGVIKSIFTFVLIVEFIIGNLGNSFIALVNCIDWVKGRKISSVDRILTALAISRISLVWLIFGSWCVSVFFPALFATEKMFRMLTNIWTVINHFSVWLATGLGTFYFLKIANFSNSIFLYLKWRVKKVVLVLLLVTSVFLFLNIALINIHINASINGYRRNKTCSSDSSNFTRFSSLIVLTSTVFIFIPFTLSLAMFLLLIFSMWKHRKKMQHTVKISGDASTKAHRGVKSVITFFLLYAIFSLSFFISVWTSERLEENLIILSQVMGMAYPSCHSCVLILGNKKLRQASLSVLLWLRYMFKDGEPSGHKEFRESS
Method: as §1, §2

[1] = challenged with 100 μM artemorin, FIG. 2

CCCc1cc(=O)[nH]c(=S)[nH]1 [propylthiouracil]
calcium responses in TAS2R4-expressing cells (TAS2R4; result in words): very small (somewhat questionable) and no dose-dependency can be shown | signals of mock-transfected cells (mock-transfected cells): elicits endogenous signals of mock-transfected cells

C=C1C(=O)O[C@@H]2[C@H]3C(C)=CC[C@@]34O[C@@]4(C)CC[C@@H]12 [Arglabin]
molar range at which TAS2R10 responded to the bitter substance (TAS2R10; calcium response, transfected HEK-293T Gα16gust44 cells, FLIPR): 0.1 mM | molar range at which TAS2R14 responded to the bitter substance (TAS2R14): 0.1 mM

CCNC(=S)NCC [N,N′-Diethylthiourea]
molar range at which TAS2R14 responded to the bitter substance (TAS2R14): 10 mM

C=C1CC[C@H]2C(=C)C(=O)O[C@@H]2/C=C(\C)CC[C@H]1O [artemorin]
receptor response in FLIPR calcium imaging experiment (TAS2R4) (TAS2R4; [1]): responded to artemorin in a dose-dependent manner | receptor response in FLIPR calcium imaging experiment (TAS2R10) (TAS2R10; [1]): responded to artemorin in a dose-dependent manner | receptor response in FLIPR calcium imaging experiment (TAS2R14) (TAS2R14; [1]): responded to artemorin in a dose-dependent manner
